From patent US10966426B2, “Herbicidal compositions comprising phenylpyrimidines” (BASF SE, priority 2016, dated 2021)
Values joined by “and” are separate entries in the source; they are usually repeats but may differ in a detail not shown here. Equal entries are not always repeated.

Legend:
Assay type in all cases: in vivo
Lolium multiflorum = experiment: greenhouse post-emergence treatment, LOLMU
Procedure, shortened: (§1)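 Scoring ran on a 0-100 scale, 100 meaning no emergence or destroyed above-ground parts, over a 2-4 week period; Colby formula E=X+Y−(X·Y/100) gave expected mixture effects. Species grew separately in loamy sand (about 3.0% humus) at 10-25° C or 20-35° C, with water as solvent.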

Polygonum convolvulus = experiment: greenhouse post-emergence treatment, POLCO
Procedure, shortened: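 Visual herbicidal effect (0–100) recorded over a 2 to 4 week test period after foliar treatment at plant heights of 3 to 15 cm. Expected combination effects derived by the Colby formula from single-component effects X and Y.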

Setaria viridis = experiment: greenhouse post-emergence treatment, SETVI
Procedure, shortened: as §1

Bromus sterilis = experiment: greenhouse post-emergence treatment, BROST
Procedure, shortened: as §1

Brachiaria decumbens = experiment: greenhouse post-emergence treatment, BRADC
Procedure, shortened: (§2)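 Seeds sown per species in pots of loamy sand; seedlings either grown in place or transplanted days before treatment. Post-emergence spray of water-based liquor at 3–15 cm height. Injury rated 0–100 over 2 to 4 weeks.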

Ambrosia elatior = experiment: greenhouse post-emergence treatment, AMBEL
Procedure, shortened: as §2

[1] = 20 DAT, Ex. 26 solo 62.5 gai/ha

Measured: % activity

COC(=O)c1nc(C2CC2)ncc1-c1ccc(F)cc1Cl [Ex. 26]
40%: Brachiaria decumbens; BRADC, 21 DAT, solo Ex. 26 250 gai/ha | Brachiaria decumbens; Ex. 26 solo 125 gai/ha, 20 DAT, BRADC (pyridate table) | Brachiaria decumbens; Ex. 26 solo, 250 gai/ha, 21 DAT, BRADC | Ambrosia elatior; 20 DAT, AMBEL, Ex. 26 solo 250 gai/ha
15%: Lolium multiflorum; Ex. 26 solo, 125 gai/ha, 21 DAT, LOLMU | Lolium multiflorum; LOLMU, 21 DAT, solo Ex. 26 125 gai/ha | Setaria viridis; Ex. 26 solo, 250 gai/ha, 21 DAT, SETVI | Bromus sterilis; Ex. 26 solo, 125 gai/ha, 21 DAT, BROST
60% and 35% and 40%: Bromus sterilis; BROST, Ex. 26 solo 125 gai/ha, 20 DAT
10%: Lolium multiflorum; Ex. 26 solo 62.5 gai/ha, 20 DAT, LOLMU (pyroxsulam table) | Lolium multiflorum; Ex. 26 solo 125 gai/ha, 21 DAT, LOLMU | Setaria viridis; Ex. 26 solo 250 gai/ha, 20 DAT, SETVI (pyroxsulam table) | Setaria viridis; Ex. 26 solo, 125 gai/ha, 21 DAT, SETVI | Setaria viridis; SETVI, 21 DAT, solo Ex. 26 62.5 gai/ha | Setaria viridis; SETVI, 21 DAT, solo Ex. 26 125 gai/ha | Brachiaria decumbens; BRADC, 21 DAT, solo Ex. 26 125 gai/ha | Brachiaria decumbens; Ex. 26 solo, 125 gai/ha, 21 DAT, BRADC
35% and 55% and 30%: Bromus sterilis; 20 DAT, Ex. 26 solo 250 gai/ha
35%: Lolium multiflorum; Ex. 26 solo 125 gai/ha, 20 DAT, LOLMU (pyridate table) | Lolium multiflorum; Ex. 26 solo 125 gai/ha, 20 DAT, LOLMU (pyroxsulam table) | Polygonum convolvulus; Ex. 26 solo, 125 gai/ha, 21 DAT, POLCO | Polygonum convolvulus; POLCO, 21 DAT, solo Ex. 26 125 gai/ha | Bromus sterilis; 21 DAT, Ex. 26 solo 250 gai/ha | Bromus sterilis; Ex. 26 solo 250 gai/ha, 21 DAT, BROST | Brachiaria decumbens; Ex. 26 solo 250 gai/ha, 20 DAT, BRADC (pyroxsulam table)
65%: Lolium multiflorum; LOLMU, Ex. 26 solo 250 gai/ha, 20 DAT | Polygonum convolvulus; 20 DAT, POLCO, Ex. 26 solo 62.5 gai/ha | Bromus sterilis; 20 DAT, BROST, Ex. 26 solo 250 gai/ha | Bromus sterilis; BROST, Ex. 26 solo 250 gai/ha, 20 DAT
85%: Polygonum convolvulus; Ex. 26 solo, 250 gai/ha, 21 DAT, POLCO | Polygonum convolvulus; POLCO, 21 DAT, solo Ex. 26 250 gai/ha
55% and 35%: Lolium multiflorum; LOLMU, Ex. 26 solo 125 gai/ha, 20 DAT
30% and 55%: Brachiaria decumbens; 20 DAT, BRADC, Ex. 26 solo 125 gai/ha
55%: Lolium multiflorum; 21 DAT, Ex. 26 solo 250 gai/ha | Lolium multiflorum; Ex. 26 solo 250 gai/ha, 20 DAT, LOLMU (pyroxsulam table)
60%: Lolium multiflorum; Ex. 26 solo 250 gai/ha, 20 DAT, LOLMU (pyridate table) | Brachiaria decumbens; 20 DAT, BRADC, Ex. 26 solo 250 gai/ha | Ambrosia elatior; AMBEL, Ex. 26 solo 250 gai/ha, 20 DAT
85% and 80%: Polygonum convolvulus; 20 DAT, POLCO, Ex. 26 solo 125 gai/ha
25%: Lolium multiflorum; Ex. 26 solo, 250 gai/ha, 20 DAT, LOLMU | Setaria viridis; Ex. 26 solo 250 gai/ha, 20 DAT, SETVI (pyridate table) | Bromus sterilis; Ex. 26 solo, 250 gai/ha, 21 DAT, BROST
60% and 35%: Bromus sterilis; 20 DAT, BROST, Ex. 26 solo 125 gai/ha
0%: Lolium multiflorum; Ex. 26 solo 62.5 gai/ha, 20 DAT, LOLMU (pyridate table) | Lolium multiflorum; Ex. 26 solo 62.5 gai/ha, 21 DAT, LOLMU | Lolium multiflorum; Ex. 26 solo, 125 gai/ha, 20 DAT, LOLMU | Lolium multiflorum; LOLMU, 21 DAT, solo Ex. 26 62.5 gai/ha | Polygonum convolvulus; 21 DAT, Ex. 26 solo 125 gai/ha | Polygonum convolvulus; Ex. 26 solo 62.5 gai/ha, 21 DAT, POLCO | Polygonum convolvulus; Ex. 26 solo 125 gai/ha, 21 DAT, POLCO | Polygonum convolvulus; POLCO, 21 DAT, solo Ex. 26 62.5 gai/ha | Setaria viridis; [1] | Setaria viridis; 21 DAT, Ex. 26 solo 125 gai/ha | Setaria viridis; 21 DAT, Ex. 26 solo 250 gai/ha | Setaria viridis; Ex. 26 solo 62.5 gai/ha, 20 DAT, SETVI (pyridate table) | Setaria viridis; Ex. 26 solo 62.5 gai/ha, 20 DAT, SETVI (pyroxsulam table) | Setaria viridis; Ex. 26 solo 125 gai/ha, 20 DAT, SETVI (pyroxsulam table) | Bromus sterilis; [1] | Bromus sterilis; Ex. 26 solo 62.5 gai/ha, 20 DAT, BROST | Brachiaria decumbens; [1] | Brachiaria decumbens; BRADC, 21 DAT, solo Ex. 26 62.5 gai/ha | Brachiaria decumbens; Ex. 26 solo 62.5 gai/ha, 20 DAT, BRADC (pyroxsulam table) | Brachiaria decumbens; Ex. 26 solo 62.5 gai/ha, 21 DAT, BRADC | Brachiaria decumbens; Ex. 26 solo 125 gai/ha, 21 DAT, BRADC | Brachiaria decumbens; Ex. 26 solo, 125 gai/ha, 20 DAT, BRADC | Ambrosia elatior; 20 DAT, AMBEL, Ex. 26 solo 62.5 gai/ha | Ambrosia elatior; 20 DAT, AMBEL, Ex. 26 solo 125 gai/ha | Ambrosia elatior; [1] | Ambrosia elatior; 20 DAT, Ex. 26 solo 125 gai/ha | Ambrosia elatior; 20 DAT, Ex. 26 solo 250 gai/ha | Ambrosia elatior; 21 DAT, Ex. 26 solo 250 gai/ha | Ambrosia elatior; AMBEL, Ex. 26 solo 62.5 gai/ha, 20 DAT | Ambrosia elatior; AMBEL, Ex. 26 solo 125 gai/ha, 20 DAT | Ambrosia elatior; Ex. 26 solo 62.5 gai/ha, 20 DAT, AMBEL (pyridate table) | Ambrosia elatior; Ex. 26 solo 62.5 gai/ha, 20 DAT, AMBEL (pyroxsulam table) | Ambrosia elatior; Ex. 26 solo 125 gai/ha, 20 DAT, AMBEL (pyridate table) | Ambrosia elatior; Ex. 26 solo 125 gai/ha, 20 DAT, AMBEL (pyroxsulam table) | Ambrosia elatior; Ex. 26 solo 250 gai/ha, 21 DAT, AMBEL | Ambrosia elatior; Ex. 26 solo, 125 gai/ha, 21 DAT, AMBEL
30% and 40%: Brachiaria decumbens; BRADC, Ex. 26 solo 125 gai/ha, 20 DAT
30%: Lolium multiflorum; Ex. 26 solo, 250 gai/ha, 21 DAT, LOLMU | Lolium multiflorum; LOLMU, 21 DAT, solo Ex. 26 250 gai/ha | Polygonum convolvulus; 20 DAT, Ex. 26 solo 250 gai/ha | Polygonum convolvulus; Ex. 26 solo 62.5 gai/ha, 20 DAT, POLCO | Polygonum convolvulus; Ex. 26 solo, 250 gai/ha, 20 DAT, POLCO | Brachiaria decumbens; Ex. 26 solo, 250 gai/ha, 20 DAT, BRADC
20%: Setaria viridis; Ex. 26 solo 125 gai/ha, 20 DAT, SETVI (pyridate table) | Brachiaria decumbens; Ex. 26 solo 62.5 gai/ha, 20 DAT, BRADC (pyridate table) | Brachiaria decumbens; Ex. 26 solo 125 gai/ha, 20 DAT, BRADC (pyroxsulam table) | Ambrosia elatior; Ex. 26 solo 250 gai/ha, 20 DAT, AMBEL (pyroxsulam table) | Ambrosia elatior; Ex. 26 solo, 250 gai/ha, 21 DAT, AMBEL
35% and 50% and 30%: Brachiaria decumbens; 20 DAT, Ex. 26 solo 250 gai/ha
5%: Polygonum convolvulus; Ex. 26 solo, 125 gai/ha, 20 DAT, POLCO | Bromus sterilis; 21 DAT, Ex. 26 solo 125 gai/ha | Bromus sterilis; Ex. 26 solo 125 gai/ha, 21 DAT, BROST | Bromus sterilis; Ex. 26 solo, 125 gai/ha, 20 DAT, BROST | Ambrosia elatior; Ex. 26 solo 62.5 gai/ha, 21 DAT, AMBEL
90%: Polygonum convolvulus; Ex. 26 solo 125 gai/ha, 20 DAT, POLCO
